Reference: US20210221787A1, “NIRAPARIB SOLID STATE FORM” (JOHNSON MATTHEY PUBLIC LIMITED COMPANY, priority 2018, published 2021)
Read-outs that look alike come from different tables or passages of the source.

Experiments:
[1] = for extended stability (retention of Form A by XRPD): with and without foil bag
Excerpt: “Stabilized” as used herein relates to an anhydrous form of the p-toluenesulfonic acid salt of niraparib that is capable of retaining its form for up to at least 4 months when held in storage in a sealed container with desiccant, with or without being stored in a foiled bag.
XRPD patterns are obtained using a Bruker D8 Advance equipped with a Cu Ka radiation source (λ=1.54 Å), a 9-position sample holder and a LYNXEYE super speed detector. Samples are placed on air sensitive silicon plate holders with zero-background with domes for analysis. One skilled in the art would recognize that the ° 2 θ values and the relative intensity values are generated by performing a peak search on the measured data and the d-spacing values are calculated by the instrument from the ° 2 θ values using Bragg's equation. One skilled in the art would further recognize that the relative intensity for the measured peaks may vary because of sample preparation, orientation and instrument used, for example.

[2] = cited from earlier work

| SMILES | extended stability ([1]; Form A not made under anhydrous conditions (Examples 1-3), compared with Form A made under anhydrous conditions) | extended stability (retention of Form A by XRPD) ([1]; made under anhydrous conditions (Example 4 or 5), sealed vials with desiccant, ambient, 30° C./65% RH or 40° C./75% RH) | extended stability (retention of Form A by XRPD) ([1]; stored only in sealed vials, without desiccant) | form conversion on DVS ([2]; DVS up to 95% RH) | hygroscopicity (DVS curve) ([2]; DVS) | DVS weight gain ([2]; up to 95% RH) |
| --- | --- | --- | --- | --- | --- | --- |
| Cc1ccc(S(=O)(=O)O)cc1.NC(=O)c1cccc2cn(-c3ccc([C@@H]4CCCNC4)cc3)nc12 [Form A, p-toluenesulfonic acid salt of niraparib] | does not exhibit extended stability | at least 4 months | do not exhibit the extended stability | – | – | – |
| Cc1ccc(S(=O)(=O)O)cc1.NC(=O)c1cccc2cn(-c3ccc([C@@H]4CCCNC4)cc3)nc12 [Form III, p-toluenesulfonic acid salt of niraparib] | – | – | – | converted to the monohydrate | very hygroscopic | approximately 15.8% |
